Measurements reported in ChEMBL document CHEMBL5370693, “Kinases Controlling Stability of the Oncogenic MYCN Protein” (ACS Med Chem Lett, 2023).
One block for each compound: values may come before it. Activity calls are given as the source filed them. No cut-off for these calls is given here.

Tests used:
Type in all cases: cell-based
[1] = molecular target: Serine/threonine-protein kinase 38-like (Homo sapiens) (UniProt Q9Y2H1); assay: Inhibition of NDR2 in human SKNBE2 cells assessed as decreased accumulation of MYCN protein measured after 24 hrs by Western blot analysis
Chain of Serine/threonine-protein kinase 38-like (Homo sapiens) (Q9Y2H1 2-464 limits assumed): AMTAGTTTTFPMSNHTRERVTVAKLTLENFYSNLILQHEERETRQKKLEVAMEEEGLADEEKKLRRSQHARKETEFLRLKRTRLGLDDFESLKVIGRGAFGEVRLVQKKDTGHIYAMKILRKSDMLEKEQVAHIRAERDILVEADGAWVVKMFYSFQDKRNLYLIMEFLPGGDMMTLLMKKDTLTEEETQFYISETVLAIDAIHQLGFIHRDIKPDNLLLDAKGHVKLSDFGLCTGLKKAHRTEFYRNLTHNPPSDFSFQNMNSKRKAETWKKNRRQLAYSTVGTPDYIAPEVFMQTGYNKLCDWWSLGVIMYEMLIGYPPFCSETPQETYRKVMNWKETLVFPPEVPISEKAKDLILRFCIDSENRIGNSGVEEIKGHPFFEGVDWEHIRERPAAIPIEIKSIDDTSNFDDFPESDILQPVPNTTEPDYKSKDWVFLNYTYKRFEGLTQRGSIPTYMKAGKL

[2] = molecular target: Serine/threonine-protein kinase 38-like (Homo sapiens) (UniProt Q9Y2H1); assay: Binding affinity to STK38L in human SKNBE2 cells assessed as effect on thermal stability at 49 degC incubated for 3 hrs by CETSA assay
[3] = molecular target: Serine/threonine-protein kinase 38-like (Homo sapiens) (UniProt Q9Y2H1); assay: Inhibition of NDR2 in human SKNBE2 cells assessed as depletion of MYCN protein at 10 uM measured after 24 hrs in presence of Cx4945 by Western blot analysis
[4] = molecular target: Serine/threonine-protein kinase 38-like (Homo sapiens) (UniProt Q9Y2H1); assay: Inhibition of NDR2 in human SKNBE2 cells assessed as depletion of MYCN protein at 10 uM measured after 24 hrs in presence of BEZ235 by Western blot analysis
[5] = molecular target: Serine/threonine-protein kinase 38-like (Homo sapiens) (UniProt Q9Y2H1); assay: Inhibition of NDR2 in human SKNBE2 cells assessed as depletion of MYCN protein at 10 uM measured after 24 hrs in presence of CHIR-124 by Western blot analysis
[6] = molecular target: Serine/threonine-protein kinase 38-like (Homo sapiens) (UniProt Q9Y2H1); assay: Inhibition of NDR2 in human SKNBE2 cells assessed as depletion of MYCN protein at 10 uM measured after 24 hrs in presence of BEZ235 and Cx4945 by Western blot analysis
[7] = molecular target: Serine/threonine-protein kinase 38-like (Homo sapiens) (UniProt Q9Y2H1); assay: Inhibition of NDR2 in human SKNBE2 cells assessed as depletion of MYCN protein at 10 uM measured after 24 hrs in presence of CHIR-124 and BEZ235 by Western blot analysis
[8] = molecular target: Serine/threonine-protein kinase 38-like (Homo sapiens) (UniProt Q9Y2H1); assay: Inhibition of NDR2 in human SKNBE2 cells assessed as depletion of MYCN protein at 10 uM measured after 24 hrs in presence of CHIR-124, BEZ235 and Cx4945 by Western blot analysis
[9] = molecular target: T1, N-myc proto-oncogene protein (Homo sapiens) (UniProt P04198); assay: Induction of MYCN degradation in human SKNBE2 cells incubated for 24 hrs by Western blot analysis; conditions: dose 1-50 µM
T1 sequence (whole entry): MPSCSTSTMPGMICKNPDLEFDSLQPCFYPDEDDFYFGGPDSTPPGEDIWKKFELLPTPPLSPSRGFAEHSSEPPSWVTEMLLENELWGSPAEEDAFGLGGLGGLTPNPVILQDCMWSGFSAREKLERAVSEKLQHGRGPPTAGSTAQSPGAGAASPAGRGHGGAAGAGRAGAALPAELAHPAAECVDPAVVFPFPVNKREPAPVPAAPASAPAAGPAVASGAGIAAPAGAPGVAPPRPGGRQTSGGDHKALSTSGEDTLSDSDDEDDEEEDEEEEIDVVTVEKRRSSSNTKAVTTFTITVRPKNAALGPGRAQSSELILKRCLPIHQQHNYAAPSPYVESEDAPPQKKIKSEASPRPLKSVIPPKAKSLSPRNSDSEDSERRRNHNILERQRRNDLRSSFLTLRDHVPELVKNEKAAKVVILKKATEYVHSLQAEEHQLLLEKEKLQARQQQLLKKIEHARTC

[10] = molecular target: T1, N-myc proto-oncogene protein (Homo sapiens); assay: Induction of MYCN degradation in human SKNBE2 cells at 5 to 15 uM incubated for 24 hrs by Western blot analysis; conditions: dose 5-15 µM
[11] = molecular target: T1, N-myc proto-oncogene protein (Homo sapiens); assay: Induction of MYCN degradation in human SKNBE2 cells at 5 uM incubated for 24 hrs by Western blot analysis
[12] = molecular target: T1, N-myc proto-oncogene protein (Homo sapiens); assay: Induction of MYCN degradation in human SKNBE2 cells at 45 uM incubated for 24 hrs by Western blot analysis
SKNBE2 [13] = assay: Inhibition of PI3K in human SKNBE2 cells assessed as degradation of MYCN protein at 10 to 15 uM incubated for 24 hrs by Western blotting analysis; conditions: dose 10-15 µM
[14] = molecular target: T2, Serine/threonine-protein kinase Chk1 (Homo sapiens) (UniProt O14757); assay: Inhibition of CHK1 in human SKNBE2 cells assessed as depletion of MYCN protein at >1 uM incubated for 24 hrs by Western blotting analysis
T2 sequence (whole entry): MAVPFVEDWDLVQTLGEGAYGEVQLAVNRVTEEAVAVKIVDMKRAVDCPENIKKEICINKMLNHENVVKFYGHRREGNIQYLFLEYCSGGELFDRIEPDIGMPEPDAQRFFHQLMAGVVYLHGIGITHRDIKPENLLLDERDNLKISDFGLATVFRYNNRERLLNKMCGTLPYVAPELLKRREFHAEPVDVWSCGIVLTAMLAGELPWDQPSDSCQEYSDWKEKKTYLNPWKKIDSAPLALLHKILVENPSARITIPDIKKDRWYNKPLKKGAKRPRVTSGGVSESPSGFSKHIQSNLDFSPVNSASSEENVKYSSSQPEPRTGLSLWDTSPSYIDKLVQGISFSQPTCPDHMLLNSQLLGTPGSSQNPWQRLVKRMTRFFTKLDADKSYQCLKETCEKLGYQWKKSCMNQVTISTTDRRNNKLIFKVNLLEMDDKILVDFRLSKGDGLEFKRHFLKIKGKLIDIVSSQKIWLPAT

[15] = molecular target: Serine/threonine-protein kinase 38-like (Homo sapiens) (UniProt Q9Y2H1); assay: Inhibition of NDR2 in human SKNBE2 cells assessed as depletion of MYCN protein at 10 uM measured after 24 hrs in presence of CHIR-124 and Cx4945 by Western blot analysis
SKNBE2 [16] = assay: Inhibition of CK2 in human SKNBE2 cells assessed as reduction in MYCN/GADPH protein ratio at 20 uM incubated for 24 hrs in presence of CHIR-124/BEZ235 by Western blotting analysis
SKNBE2 [17] = assay: Inhibition of PI3K in human SKNBE2 cells assessed as reduction in MYCN/GADPH protein ratio at 5 uM incubated for 24 hrs in presence of Cx945 by Western blotting analysis
SKNBE2 [18] = assay: Inhibition of PI3K in human SKNBE2 cells assessed as degradation of MYCN protein at 5 to 10 uM incubated for 24 hrs by Western blotting analysis; conditions: dose 5-10 µM
SKNBE2 [19] = assay: Inhibition of PI3K in human SKNBE2 cells assessed as reduction in MYCN/GADPH protein ratio at 5 uM incubated for 24 hrs in presence of CHIR-124 by Western blotting analysis
SKNBE2 [20] = assay: Inhibition of PI3K in human SKNBE2 cells assessed as depletion of MYCN protein at 5 uM measured after 24 hrs in presence of Cx4945 by Western blot analysis
SKNBE2 [21] = assay: Inhibition of PI3K in human SKNBE2 cells assessed as depletion of MYCN protein at 5 uM measured after 24 hrs in presence of CHIR-124 by Western blot analysis
SKNBE2 [22] = assay: Inhibition of PI3K in human SKNBE2 cells assessed as depletion of MYCN protein at 5 uM measured after 24 hrs in presence of NG25 by Western blot analysis
SKNBE2 [23] = assay: Inhibition of PI3K in human SKNBE2 cells assessed as depletion of MYCN protein at 5 uM measured after 24 hrs in presence of Cx4945 and CHIR-124 by Western blot analysis
SKNBE2 [24] = assay: Inhibition of PI3K in human SKNBE2 cells assessed as depletion of MYCN protein at 5 uM measured after 24 hrs in presence of Cx4945 and NG25 by Western blot analysis
SKNBE2 [25] = assay: Inhibition of PI3K in human SKNBE2 cells assessed as depletion of MYCN protein at 5 uM measured after 24 hrs in presence of NG25 and CHIR-124 by Western blot analysis
SKNBE2 [26] = assay: Inhibition of PI3K in human SKNBE2 cells assessed as depletion of MYCN protein at 5 uM measured after 24 hrs in presence of NG25, Cx4945 and CHIR-124 by Western blot analysis
SKNBE2 [27] = assay: Inhibition of PI3K in human SKNBE2 cells assessed as reduction in MYCN/GADPH protein ratio at 5 uM incubated for 24 hrs in presence of […]/CHIR-124 by Western blotting analysis
[28] = molecular target: T1, N-myc proto-oncogene protein (Homo sapiens); assay: Induction of MYCN degradation in human SKNBE2 cells at 5 to 50 uM incubated for 24 hrs by Western blot analysis; conditions: dose 5-50 µM

- inhibition [1]: Dose-Dependent Effect
SMILES: CCN1CCN(c2ccc(Nc3cc(N(C)C(=O)Nc4c(Cl)c(OC)cc(OC)c4Cl)ncn3)cc2)CC1

- inhibition [1]: Dose-Dependent Effect
- Activity [2]: inactive
- inhibition [3]: inactive
- inhibition [4]: Active
- inhibition [5]: Active
- inhibition [6]: Active
- inhibition [7]: Active
- inhibition [8]: Active
SMILES: CCN1CCN(Cc2ccc(NC(=O)c3ccc(C)c(Oc4ccnc5[nH]ccc45)c3)cc2C(F)(F)F)CC1

- inhibition [1]: Dose-Dependent Effect
SMILES: COc1cc(N2CCC(N3CCN(C)CC3)CC2)ccc1Nc1ncc(Cl)c(Nc2ccccc2S(=O)(=O)C(C)C)n1

- Activity [9]: Dose-Dependent Effect
SMILES: COc1cc(C)c(Sc2cnc(NC(=O)c3ccc(CNC(C)C(C)(C)C)cc3)s2)cc1C(=O)N1CCN(C(C)=O)CC1 (stereo not given)

- Activity [10]: Active
SMILES: CCCCCCOc1ccc2c(=O)c(-c3ccc(O)c(O)c3)coc2c1

- Activity [11]: Active
SMILES: CC(C)CCOc1ccc2c(c1)OCC(c1ccc(O)c(O)c1)C2 (stereo not given)

- Activity [12]: Active
SMILES: CC(C)CCOc1ccc2occ(-c3ccc(O)c(O)c3)c(=O)c2c1

SMILES: CS(=O)(=O)N1CCN(Cc2cc3nc(-c4cccc5[nH]ncc45)nc(N4CCOCC4)c3s2)CC1
- inhibition (SKNBE2 [13]): inactive

- inhibition [14]: Active
SMILES: Cn1cc(-c2[nH]c3cc(NC(=O)[C@H](N)C4CCCCC4)cc4c3c2C=NNC4=O)cn1

- inhibition [15]: Active
SMILES: O=C(O)c1ccc2c(c1)nc(Nc1cccc(Cl)c1)c1ccncc12
- inhibition (SKNBE2 [16]): Active

SMILES: Cn1c(=O)n(-c2ccc(C(C)(C)C#N)cc2)c2c3cc(-c4cnc5ccccc5c4)ccc3ncc21
- inhibition (SKNBE2 [17]): Active
- inhibition (SKNBE2 [18]): inactive
- inhibition (SKNBE2 [19]): Active
- inhibition (SKNBE2 [20]): Active
- inhibition (SKNBE2 [21]): Active
- inhibition (SKNBE2 [22]): Active
- inhibition (SKNBE2 [23]): Active
- inhibition (SKNBE2 [24]): Active
- inhibition (SKNBE2 [25]): Active
- inhibition (SKNBE2 [26]): Active
- inhibition (SKNBE2 [27]): Active

- Activity [28]: Active
SMILES: CCCOc1ccc2c(=O)c(-c3ccc(O)c(O)c3)coc2c1
